Measured values: the supplement of paper PMC4862054

Experiments:
Conditions in all cases: incubation time: 72 h
CAL-148 [1] = test: drug sensitivity score (DSS), CellTox Green (DSS (AUC-based score)); higher = stronger drug effect (viability inhibition or cytotoxicity); extreme values may be limits of the assay
In short: (§1)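 Compound was dispensed into 384-well plates at 5 concentrations in 10-fold steps spanning a 10,000-fold range chosen for each compound, and 20 µl of breast cancer cell suspension was added before 72 h of incubation. CellTox Green fluorescence was read at 485/520 nm, followed by CellTiter-Glo luminescence after 10 min at room temperature. Values on each plate were normalised to 0.1 % DMSO and a positive kill control. The drug sensitivity score came from the area under the fitted dose-response curve.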

MFM-223 [2] = test: as above
In short: as §1

MDA-MB-231 [3] = test: as above
In short: as §1

HCC1599 [4] = test: as above
In short: as §1

MDA-MB-453 [5] = test: as above
In short: as §1

CAL-51 [6] = test: as above
In short: as §1

Hs578T [7] = test: as above
In short: as §1

DU-4475 [8] = test: as above
In short: as §1

HDQ-P1 [9] = test: as above
In short: as §1

BT-549 [10] = test: as above
In short: as §1

CAL-148 [11] = test: normalised viability (% of control), CellTiter-Blue; higher = more viable cells (about 100 = DMSO control)
Method: (§2)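 DSRT, CellTiter-Blue viability, 72 h incubation. Signal is normalised to DMSO and benzethonium chloride controls. Value is the normalised response at dose 3.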

MFM-223 [12] = test: as above
Method: as §2

MDA-MB-231 [13] = test: as above
Method: as §2

HCC1143 = test: as above
Method: as §2

HCC1599 [14] = test: as above
Method: as §2

MDA-MB-436 = test: as above
Method: as §2

BT-549 [15] = test: as above
Method: as §2

HCC1937 = test: as above
Method: as §2

CAL-85-1 = test: as above
Method: as §2

BT-474 = test: as above
Method: as §2

MDA-MB-453 [16] = test: as above
Method: as §2

CAL-51 [17] = test: as above
Method: as §2

SK-BR-3 = test: as above
Method: as §2

Hs578T [18] = test: as above
Method: as §2

CAL-120 [19] = test: as above
Method: as §2

DU-4475 [20] = test: as above
Method: as §2

HDQ-P1 [21] = test: as above
Method: as §2

MDA-MB-468 = test: as above
Method: as §2

CAL-120 [22] = test: normalised viability (% of control), CellTiter-Blue; higher = more viable cells (about 100 = DMSO control); remark: listed apart in the source
In short: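 Each entry is normalised viability at a single listed concentration within a series. It comes from breast cancer cell lines incubated 72 h with compound in 384-well plates, then measured with CellTiter-Blue fluorescence at 560/590 nm. Every plate was normalised between vehicle (100) and a positive kill control (0).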

Structure (SMILES): CCn1c(C(=O)N(C2CC2)C2CC2)cc2c3c(ncn3C)c(Nc3cc(C)n(C)n3)nc21
- drug sensitivity score (CAL-148 [1]): 0
- drug sensitivity score (MFM-223 [2]): 0
- drug sensitivity score (MDA-MB-231 [3]): 0
- drug sensitivity score (HCC1599 [4]): 0
- drug sensitivity score (MDA-MB-453 [5]): 0
- drug sensitivity score (CAL-51 [6]): 0
- drug sensitivity score (Hs578T [7]): 0
- drug sensitivity score (DU-4475 [8]): 0
- drug sensitivity score (HDQ-P1 [9]): 0

Structure (SMILES): CN[C@@H](C)C(=O)N[C@H]1CN(C(=O)CC(C)C)CC[C@H]2CC[C@@H](C(=O)NC(c3ccccc3)c3ccccc3)N2C1=O [AT-406]
- drug sensitivity score (MFM-223 [2]): 0
- drug sensitivity score (MDA-MB-231 [3]): 25.5
- drug sensitivity score (HCC1599 [4]): 0
- drug sensitivity score (BT-549 [10]): 8.86
- drug sensitivity score (MDA-MB-453 [5]): 0
- drug sensitivity score (CAL-51 [6]): 0
- drug sensitivity score (Hs578T [7]): 0
- drug sensitivity score (DU-4475 [8]): 0
- drug sensitivity score (HDQ-P1 [9]): 4.26

Structure (SMILES): CCNC(=O)CCC/C=C\C[C@@H]1[C@@H](/C=C/[C@@H](O)CCc2ccccc2)[C@H](O)C[C@@H]1O [Bimatoprost]
- normalised viability (CAL-148 [11]; 5.5 nM): 90.1%
- normalised viability (MFM-223 [12]; 55 nM): 108%
- normalised viability (MDA-MB-231 [13]; 55 nM): 96.8%
- normalised viability (HCC1143; 55 nM): 100%
- normalised viability (HCC1599 [14]; 55 nM): 123%
- normalised viability (MDA-MB-436; 55 nM): 115%
- normalised viability (BT-549 [15]; 55 nM): 98.7%
- normalised viability (HCC1937; 55 nM): 102%
- normalised viability (CAL-85-1; 5.5 nM): 104%
- normalised viability (BT-474; 55 nM): 126%
- normalised viability (MDA-MB-453 [16]; 5.5 nM): 105%
- normalised viability (CAL-51 [17]; 5.5 nM): 113%
- normalised viability (SK-BR-3; 55 nM): 82.1%
- normalised viability (Hs578T [18]; 55 nM): 80.7%
- normalised viability (CAL-120 [19]; 55 nM): 95.4%
- normalised viability (DU-4475 [20]; 5.5 nM): 120%
- normalised viability (HDQ-P1 [21]; 5.5 nM): 99.7%
- normalised viability (MDA-MB-468; 55 nM): 106%
- normalised viability (CAL-120 [22]; 5.5 nM): 95.3%
- normalised viability (CAL-120 [22]; 550 nM): 92.4%
- normalised viability (CAL-120 [22]; 5500 nM): 94%
- drug sensitivity score (CAL-148 [1]): 0
- drug sensitivity score (MFM-223 [2]): 0
- drug sensitivity score (MDA-MB-231 [3]): 0
- drug sensitivity score (HCC1599 [4]): 0
- drug sensitivity score (BT-549 [10]): 0
- drug sensitivity score (MDA-MB-453 [5]): 0
- drug sensitivity score (CAL-51 [6]): 0
- drug sensitivity score (Hs578T [7]): 2.06
- drug sensitivity score (DU-4475 [8]): 0

Structure (SMILES): CC1(COc2ccc3c(c2)ncn3-c2ccc3cccc(N4CCC(N)CC4)c3n2)COC1 [Crenolanib]
- drug sensitivity score (CAL-148 [1]): 6.78
- drug sensitivity score (MFM-223 [2]): 0
- drug sensitivity score (MDA-MB-231 [3]): 6.39
- drug sensitivity score (HCC1599 [4]): 0
- drug sensitivity score (BT-549 [10]): 4.07
- drug sensitivity score (MDA-MB-453 [5]): 0
- drug sensitivity score (CAL-51 [6]): 4.42
- drug sensitivity score (Hs578T [7]): 0
- drug sensitivity score (DU-4475 [8]): 0.612
- drug sensitivity score (HDQ-P1 [9]): 7.06

Structure (SMILES): CC(C)(C)c1nc(-c2cccc(NS(=O)(=O)c3c(F)cccc3F)c2F)c(-c2ccnc(N)n2)s1 [Dabrafenib]
- drug sensitivity score (CAL-148 [1]): 1.13
- drug sensitivity score (MFM-223 [2]): 0
- drug sensitivity score (MDA-MB-231 [3]): 0
- drug sensitivity score (HCC1599 [4]): 0
- drug sensitivity score (BT-549 [10]): 0
- drug sensitivity score (MDA-MB-453 [5]): 0
- drug sensitivity score (CAL-51 [6]): 0
- drug sensitivity score (Hs578T [7]): 18.1
- drug sensitivity score (DU-4475 [8]): 3.29
- drug sensitivity score (HDQ-P1 [9]): 1.28

Structure (SMILES): Cn1cc(C2=C(c3cn(C4CCN(Cc5ccccn5)CC4)c4ccccc34)C(=O)NC2=O)c2ccccc21 [Enzastaurin]
- normalised viability (CAL-148 [11]; 10 nM): 95.3%
- normalised viability (MFM-223 [12]; 100 nM): 92.7%
- normalised viability (MDA-MB-231 [13]; 100 nM): 93.5%
- normalised viability (HCC1143; 100 nM): 98%
- normalised viability (HCC1599 [14]; 100 nM): 114%
- normalised viability (MDA-MB-436; 100 nM): 84.9%
- normalised viability (BT-549 [15]; 100 nM): 104%
- normalised viability (HCC1937; 100 nM): 86.2%
- normalised viability (CAL-85-1; 10 nM): 96.9%
- normalised viability (BT-474; 100 nM): 108%
- normalised viability (MDA-MB-453 [16]; 10 nM): 97.5%
- normalised viability (CAL-51 [17]; 10 nM): 108%
- normalised viability (SK-BR-3; 100 nM): 69.8%
- normalised viability (Hs578T [18]; 100 nM): 68.7%
- normalised viability (CAL-120 [19]; 100 nM): 91.6%
- normalised viability (DU-4475 [20]; 10 nM): 123%
- normalised viability (HDQ-P1 [21]; 10 nM): 123%
- normalised viability (MDA-MB-468; 100 nM): 105%
- normalised viability (CAL-120 [22]; 10 nM): 89.6%
- normalised viability (CAL-120 [22]; 1000 nM): 95%
- normalised viability (CAL-120 [22]; 10000 nM): 65.9%
- drug sensitivity score (CAL-148 [1]): 0
- drug sensitivity score (MFM-223 [2]): 0
- drug sensitivity score (MDA-MB-231 [3]): 0
- drug sensitivity score (HCC1599 [4]): 0
- drug sensitivity score (BT-549 [10]): 0
- drug sensitivity score (MDA-MB-453 [5]): 0
- drug sensitivity score (CAL-51 [6]): 0
- drug sensitivity score (DU-4475 [8]): 0
- drug sensitivity score (HDQ-P1 [9]): 0

Structure (SMILES): Cc1nc(C(=O)NCC(=O)O)c(O)c2ccc(Oc3ccccc3)cc12 [FG-4592]
- drug sensitivity score (CAL-148 [1]): 0
- drug sensitivity score (MFM-223 [2]): 0
- drug sensitivity score (MDA-MB-231 [3]): 0
- drug sensitivity score (HCC1599 [4]): 0
- drug sensitivity score (BT-549 [10]): 0
- drug sensitivity score (MDA-MB-453 [5]): 0
- drug sensitivity score (CAL-51 [6]): 0
- drug sensitivity score (Hs578T [7]): 0
- drug sensitivity score (DU-4475 [8]): 0
- drug sensitivity score (HDQ-P1 [9]): 0

Structure (SMILES): CC(C)C[C@H](NC(=O)[C@@H](COC(C)(C)C)NC(=O)[C@H](Cc1ccc(O)cc1)NC(=O)[C@H](CO)NC(=O)[C@H](Cc1c[nH]c2ccccc12)NC(=O)[C@H](Cc1cnc[nH]1)NC(=O)[C@@H]1CCC(=O)N1)C(=O)N[C@@H](CCCNC(=N)N)C(=O)N1CCC[C@H]1C(=O)NNC(N)=O [Goserelin]
- normalised viability (CAL-148 [11]; 10 nM): 101%
- normalised viability (MFM-223 [12]; 100 nM): 91.3%
- normalised viability (MDA-MB-231 [13]; 100 nM): 91.8%
- normalised viability (HCC1143; 100 nM): 87.3%
- normalised viability (HCC1599 [14]; 100 nM): 94.4%
- normalised viability (MDA-MB-436; 100 nM): 102%
- normalised viability (BT-549 [15]; 100 nM): 102%
- normalised viability (HCC1937; 100 nM): 104%
- normalised viability (CAL-85-1; 10 nM): 102%
- normalised viability (BT-474; 100 nM): 115%
- normalised viability (MDA-MB-453 [16]; 10 nM): 102%
- normalised viability (CAL-51 [17]; 10 nM): 113%
- normalised viability (SK-BR-3; 100 nM): 110%
- normalised viability (Hs578T [18]; 100 nM): 113%
- normalised viability (CAL-120 [19]; 100 nM): 107%
- normalised viability (DU-4475 [20]; 10 nM): 96.2%
- normalised viability (HDQ-P1 [21]; 10 nM): 117%
- normalised viability (MDA-MB-468; 100 nM): 101%
- normalised viability (CAL-120 [22]; 10 nM): 96.4%
- normalised viability (CAL-120 [22]; 1000 nM): 93.1%
- normalised viability (CAL-120 [22]; 10000 nM): 94.4%
- drug sensitivity score (CAL-148 [1]): 0
- drug sensitivity score (MDA-MB-231 [3]): 0
- drug sensitivity score (HCC1599 [4]): 0
- drug sensitivity score (BT-549 [10]): 0
- drug sensitivity score (MDA-MB-453 [5]): 0
- drug sensitivity score (CAL-51 [6]): 0
- drug sensitivity score (Hs578T [7]): 1.59
- drug sensitivity score (DU-4475 [8]): 0
- drug sensitivity score (HDQ-P1 [9]): 0.917

Structure (SMILES): O=C(O)CNC(=O)c1c(O)c2ccccc2n(Cc2ccccc2)c1=O [IOX-2]
- drug sensitivity score (CAL-148 [1]): 0
- drug sensitivity score (MFM-223 [2]): 0
- drug sensitivity score (MDA-MB-231 [3]): 0
- drug sensitivity score (HCC1599 [4]): 0
- drug sensitivity score (BT-549 [10]): 2.91
- drug sensitivity score (MDA-MB-453 [5]): 1.5
- drug sensitivity score (CAL-51 [6]): 0
- drug sensitivity score (Hs578T [7]): 0
- drug sensitivity score (DU-4475 [8]): 0
- drug sensitivity score (HDQ-P1 [9]): 3.99
